Measured values as given in PMC5746514 (The Korean Journal of Physiology & Pharmacology : …, 2017).

Target: T1, Kv3.1 potassium channel (Kv3.1b) (Rattus norvegicus, UniProt P25122)
T1 sequence (P25122 1-585): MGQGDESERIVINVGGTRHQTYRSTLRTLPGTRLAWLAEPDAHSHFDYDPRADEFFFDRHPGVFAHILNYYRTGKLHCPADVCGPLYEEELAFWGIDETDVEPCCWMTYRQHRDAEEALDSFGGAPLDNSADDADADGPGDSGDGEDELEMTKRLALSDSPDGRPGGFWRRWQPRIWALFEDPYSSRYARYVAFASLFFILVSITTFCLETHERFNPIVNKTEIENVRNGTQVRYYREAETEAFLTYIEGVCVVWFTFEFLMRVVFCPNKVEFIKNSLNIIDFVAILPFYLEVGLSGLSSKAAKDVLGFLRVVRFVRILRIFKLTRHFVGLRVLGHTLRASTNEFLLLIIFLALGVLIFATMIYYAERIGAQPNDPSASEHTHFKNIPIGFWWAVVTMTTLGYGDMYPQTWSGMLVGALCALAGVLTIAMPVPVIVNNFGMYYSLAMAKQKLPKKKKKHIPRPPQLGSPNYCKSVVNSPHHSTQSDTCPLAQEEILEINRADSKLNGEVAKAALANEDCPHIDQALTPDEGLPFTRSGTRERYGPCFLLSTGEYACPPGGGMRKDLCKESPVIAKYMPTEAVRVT
Experiment: whole-cell patch clamp of transfected CHO cells
Format: cell-based

IC50: 9.43 µM
SMILES: Fc1ccc([C@@H]2CCNC[C@H]2COc2ccc3c(c2)OCO3)cc1 [paroxetine]
